Key:
[1] = Calculated conditional stability constants for chelants with Cu^+2 at specified pH; assay type: physicochemical
Excerpt: (§1) However, as the pH range of the present compositions are acidic (i.e., less than 7), the log alpha value (αm) is considered to be constant and approximately negligible.

[2] = 1:1 complex, fully deprotonated chelant, 25° C., 0.1M ionic strength; cited from earlier work
[3] = Calculated conditional stability constants for chelants with Fe^+3 at specified pH
Excerpt: The gradual change in ligand species as pH changes can be represented using alpha (α) coefficients, defined as: [formula] […] By combining stability (K) and alpha (α) constants at a given pH, the formula below provides the effective chelating power of a chelant.

[4] = Calculated conditional stability constants for chelants with Ca^+2 at specified pH; assay type: physicochemical
Excerpt: as §1
The calculated stability constants for a range of chelants with Fe^+3, Cu^+2, and Ca^+2 are given below in Table 3: […]

[5] = 1:1 complex, fully deprotonated chelant, 25° C., 0.1M ionic strength; cited from earlier work; remark: listed apart in the source
[6] = 1:1 complex, fully deprotonated chelant, 25° C., 0.1M ionic strength; cited from earlier work; remark: listed apart in the source

| Compound | log Conditional Stability Constant (@ pH) Cu^+2 ([1]; pH 2) | log Conditional Stability Constant (@ pH) Cu^+2 ([1]; pH 3) | log Conditional Stability Constant (@ pH) Cu^+2 ([1]; pH 4) | log Conditional Stability Constant (@ pH) Cu^+2 ([1]; pH 5) | log Conditional Stability Constant (@ pH) Cu^+2 ([1]; pH 6) | log Conditional Stability Constant (@ pH) Cu^+2 ([1]; pH 8) | log K Fe [2] | log Conditional Stability Constant (@ pH) Fe^+3 ([3]; pH 2) | log Conditional Stability Constant (@ pH) Fe^+3 ([3]; pH 3) | log Conditional Stability Constant (@ pH) Fe^+3 ([3]; pH 4) | log Conditional Stability Constant (@ pH) Fe^+3 ([3]; pH 6) | log Conditional Stability Constant (@ pH) Fe^+3 ([3]; pH 7) | log Conditional Stability Constant (@ pH) Fe^+3 ([3]; pH 8) | log Conditional Stability Constant (@ pH) Ca^+2 ([4]; pH 2) | log Conditional Stability Constant (@ pH) Ca^+2 ([4]; pH 3) | log Conditional Stability Constant (@ pH) Ca^+2 ([4]; pH 4) | log Conditional Stability Constant (@ pH) Ca^+2 ([4]; pH 5) | log Conditional Stability Constant (@ pH) Ca^+2 ([4]; pH 6) | log Conditional Stability Constant (@ pH) Ca^+2 ([4]; pH 7) | log Conditional Stability Constant (@ pH) Ca^+2 ([4]; pH 8) | further results |
| --- | --- | --- | --- | --- | --- | --- | --- | --- | --- | --- | --- | --- | --- | --- | --- | --- | --- | --- | --- | --- | --- |
| O=C(O)CC(NCCNC(CC(=O)O)C(=O)O)C(=O)O (mixture of isomers) [EDDS, ethylene diamine disuccinic acid] | 2.59 | 6.28 | 9.20 | 11.41 | 13.39 | 16.26 | 22.0 | 6.29 | 9.98 | 12.90 | 17.09 | 18.76 | 19.96 | −11.11 | −7.42 | −4.50 | −2.29 | −0.13 | 1.36 | 2.56 | log K Ca [5]: 4.58; log K Cu [6]: 18.35 |
| O=P(O)(O)CN(CCN(CP(=O)(O)O)CP(=O)(O)O)CCN(CP(=O)(O)O)CP(=O)(O)O [DTPMP, diethylenetriamine penta(methylene phosphonic acid)] | −9.10 | −5.10 | −1.10 | 2.90 | 6.87 | 13.85 | 26.5 | −2.10 | 1.90 | 5.90 | 13.87 | 17.68 | 20.85 | −21.50 | −17.50 | −13.50 | −9.50 | −5.53 | −1.72 | 1.45 | log Conditional Stability Constant (@ pH) Cu^+2 ([1]; pH 7): 10.68; log Conditional Stability Constant (@ pH) Fe^+3 ([3]; pH 5): 9.90; log K Ca [5]: 7.1; log K Cu [6]: 19.5 |
